# From PubChem BioAssay (NCI)
#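 How tested: cells in 96-well plates exposed to compound for 48 hours at five concentrations. The concentration for full growth arrest is given as TGI.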
# Columns and labels:
# Assay in all cases: NCI tumour cell line growth inhibition, 48 h
# [1] = tested on: SR leukemia
# [2] = tested on: HT29 colon
# [3] = tested on: A498 renal
# [4] = tested on: MALME-3M melanoma
# [5] = tested on: DU-145 prostate
# [6] = tested on: KM12 colon
# [7] = tested on: UACC-257 melanoma
# [8] = tested on: RXF 393 renal
# [9] = tested on: HCC-2998 colon
# [10] = tested on: COLO 205 colon
# [11] = tested on: SF-539 CNS
# [12] = tested on: HOP-92 NSCLC
# [13] = tested on: NCI-H23 lung
# [14] = tested on: RXF-631 renal
# [15] = tested on: U251 CNS
# [16] = tested on: HOP-18 NSCLC
# [17] = tested on: SN12C renal
# [18] = tested on: OVCAR-3 ovarian
# [19] = tested on: M14 melanoma
# [20] = tested on: SF-295 CNS
# [21] = tested on: OVCAR-5 ovarian
# [22] = tested on: MOLT-4 leukemia
# [23] = tested on: NCI-H460 lung
# [24] = tested on: SK-MEL-2 melanoma
# [25] = tested on: CAKI-1 renal
# [26] = tested on: K-562 leukemia
# [27] = tested on: SW-620 colon
# [28] = tested on: SK-OV-3 ovarian
# [29] = tested on: MDA-N
# [30] = tested on: SF-268 CNS
# [31] = tested on: BT-549 breast
# [32] = tested on: M19-MEL melanoma
# [33] = tested on: CCRF-CEM leukemia
# [34] = tested on: SK-MEL-5 melanoma
# [35] = tested on: OVCAR-8 ovarian
# [36] = tested on: EKVX NSCLC
# [37] = tested on: 786-0 renal
# [38] = tested on: OVCAR-4 ovarian
# [39] = tested on: SNB-19 CNS
# [40] = tested on: KM20L2 colon
# [41] = tested on: DLD-1 colon
# [42] = tested on: DMS 114 small cell lung
# [43] = tested on: XF 498 CNS
# [44] = tested on: RPMI-8226 leukemia
# [45] = tested on: MCF7 breast
# [46] = tested on: SK-MEL-28 melanoma
# [47] = tested on: MDA-MB-435
# [48] = tested on: MDA-MB-231 breast
# [49] = tested on: LXFL 529 NSCLC
# [50] = tested on: SNB-75 CNS
# [51] = tested on: A549 NSCLC
# [52] = tested on: HL-60(TB) leukemia
# [53] = tested on: IGROV1 ovarian
# [54] = tested on: HCT-15 colon
# [55] = tested on: LOX IMVI melanoma
# [56] = tested on: PC-3 prostate
# [57] = tested on: HS 578T breast
# [58] = tested on: SNB-78 CNS
# [59] = tested on: TK-10 renal
# [60] = tested on: NCI-H226 lung
# [61] = tested on: HOP-62 NSCLC
# [62] = tested on: NCI-H522 lung
# [63] = tested on: ACHN renal
# [64] = tested on: UACC-62 melanoma
# [65] = tested on: HCT-116 colon
# [66] = tested on: DMS 273 small cell lung
# [67] = tested on: UO-31 renal
# [68] = tested on: SN12K1 renal
# [69] = tested on: P388/ADR leukemia
# [70] = tested on: NCI/ADR-RES ovarian
# [71] = tested on: P388 leukemia
structure (smiles),measurement,setting,value
O=C1C(Br)=C(c2ccccc2)C(c2ccccc2)=C1c1ccccc1,TGI,[1],3.78 µM
same,TGI,[2],5.15 µM
same,TGI,[3],29.9 µM
same,TGI,[4],3.33 µM
same,TGI,[5],25.9 µM
same,TGI,[6],18.5 µM
same,TGI,[7],9.67 µM
same,TGI,[8],3.92 µM
same,TGI,[9],15.9 µM
same,TGI,[10],3.69 µM
same,TGI,[11],8.07 µM
same,TGI,[12],3.84 µM
same,TGI,[13],10.5 µM
same,TGI,[14],13.1 µM
same,TGI,[15],9.83 µM
same,TGI,[16],14.9 µM
same,TGI,[17],3.85 µM
same,TGI,[18],6.37 µM
same,TGI,[19],4.46 µM
same,TGI,[20],23.5 µM
same,TGI,[21],25.5 µM
same,TGI,[22],3.74 µM
same,TGI,[23],18 µM
same,TGI,[24],14.4 µM
same,TGI,[25],6.06 µM
same,TGI,[26],9.93 µM
same,TGI,[27],3.26 µM
same,TGI,[28],29.3 µM
same,TGI,[29],9.61 µM
same,TGI,[30],7.52 µM
same,TGI,[31],10.9 µM
same,TGI,[32],5.58 µM
same,TGI,[33],2.02 µM
same,TGI,[34],9.35 µM
same,TGI,[35],4.46 µM
same,TGI,[36],18 µM
same,TGI,[37],4.26 µM
same,TGI,[38],4.98 µM
same,TGI,[39],24.2 µM
same,TGI,[40],13.1 µM
same,TGI,[41],3.66 µM
same,TGI,[42],5.03 µM
same,TGI,[43],3.65 µM
same,TGI,[44],5.22 µM
same,TGI,[45],7.68 µM
same,TGI,[46],6.75 µM
same,TGI,[47],12.5 µM
same,TGI,[48],6.05 µM
same,TGI,[49],2.84 µM
same,TGI,[50],12.9 µM
same,TGI,[51],28.1 µM
same,TGI,[52],2.31 µM
same,TGI,[53],10.6 µM
same,TGI,[54],4.03 µM
same,TGI,[55],2.94 µM
same,TGI,[56],16.2 µM
same,TGI,[57],40.5 µM
same,TGI,[58],4.26 µM
same,TGI,[59],7.12 µM
same,TGI,[60],21.8 µM
same,TGI,[61],23 µM
same,TGI,[62],1.77 µM
same,TGI,[63],6.51 µM
same,TGI,[64],5.73 µM
same,TGI,[65],3.6 µM
same,TGI,[66],3.68 µM
same,TGI,[67],12.8 µM
CN1CCC23c4ccccc4NC1C21CCN(C)C3Nc2ccccc21,TGI,[2],> 375 µM
same,TGI,[3],> 375 µM
same,TGI,[4],> 337 µM
same,TGI,[6],> 284 µM
same,TGI,[7],231 µM
same,TGI,[8],> 375 µM
same,TGI,[9],> 375 µM
same,TGI,[10],> 375 µM
same,TGI,[68],> 275 µM
same,TGI,[11],> 375 µM
same,TGI,[12],296 µM
same,TGI,[13],> 375 µM
same,TGI,[69],> 375 µM
same,TGI,[15],> 375 µM
same,TGI,[16],> 375 µM
same,TGI,[17],> 375 µM
same,TGI,[18],> 375 µM
same,TGI,[20],> 375 µM
same,TGI,[21],> 375 µM
same,TGI,[22],> 165 µM
same,TGI,[23],> 375 µM
same,TGI,[24],> 375 µM
same,TGI,[25],> 164 µM
same,TGI,[26],> 187 µM
same,TGI,[27],> 375 µM
same,TGI,[28],> 375 µM
same,TGI,[32],> 375 µM
same,TGI,[33],> 188 µM
same,TGI,[34],> 174 µM
same,TGI,[35],> 37.5 µM
same,TGI,[36],> 375 µM
same,TGI,[38],> 375 µM
same,TGI,[39],> 375 µM
same,TGI,[40],> 350 µM
same,TGI,[41],> 375 µM
same,TGI,[42],> 375 µM
same,TGI,[70],> 375 µM
same,TGI,[44],> 182 µM
same,TGI,[45],> 375 µM
same,TGI,[46],> 375 µM
same,TGI,[71],> 124 µM
same,TGI,[50],> 375 µM
same,TGI,[51],> 375 µM
same,TGI,[52],109 µM
same,TGI,[53],> 375 µM
same,TGI,[54],> 375 µM
same,TGI,[55],> 375 µM
same,TGI,[58],> 158 µM
same,TGI,[60],> 209 µM
same,TGI,[61],> 375 µM
same,TGI,[62],> 375 µM
same,TGI,[64],> 375 µM
same,TGI,[65],> 375 µM
same,TGI,[66],> 375 µM
same,TGI,[67],> 375 µM
CC1CC(C)C(=O)C(C(=O)CC2CC(=O)NC2=O)C1 (configuration not stated),TGI,[1],> 100 µM
same,TGI,[2],> 100 µM
same,TGI,[3],> 100 µM
same,TGI,[4],> 100 µM
same,TGI,[6],> 100 µM
same,TGI,[7],> 100 µM
same,TGI,[8],> 100 µM
same,TGI,[9],> 100 µM
same,TGI,[10],> 100 µM
same,TGI,[11],> 100 µM
same,TGI,[12],> 100 µM
same,TGI,[13],> 100 µM
same,TGI,[14],> 100 µM
same,TGI,[15],> 100 µM
same,TGI,[16],> 100 µM
same,TGI,[17],> 100 µM
same,TGI,[18],> 100 µM
same,TGI,[19],> 100 µM
same,TGI,[20],> 100 µM
same,TGI,[21],> 100 µM
same,TGI,[23],> 100 µM
same,TGI,[25],> 100 µM
same,TGI,[26],> 100 µM
same,TGI,[27],> 100 µM
same,TGI,[28],> 100 µM
same,TGI,[30],> 100 µM
same,TGI,[32],> 100 µM
same,TGI,[33],> 100 µM
same,TGI,[35],> 100 µM
same,TGI,[36],> 100 µM
same,TGI,[37],> 100 µM
same,TGI,[38],> 100 µM
same,TGI,[39],> 100 µM
same,TGI,[40],> 100 µM
same,TGI,[41],> 100 µM
same,TGI,[42],> 100 µM
same,TGI,[43],> 100 µM
same,TGI,[44],> 100 µM
same,TGI,[46],> 100 µM
same,TGI,[49],> 100 µM
same,TGI,[50],> 100 µM
same,TGI,[51],> 100 µM
same,TGI,[52],> 100 µM
same,TGI,[53],> 100 µM
same,TGI,[55],> 100 µM
same,TGI,[58],> 100 µM
same,TGI,[59],> 100 µM
same,TGI,[60],> 100 µM
same,TGI,[61],> 100 µM
same,TGI,[62],> 100 µM
same,TGI,[63],> 100 µM
same,TGI,[64],> 100 µM
same,TGI,[65],> 100 µM
same,TGI,[66],> 100 µM
same,TGI,[67],> 100 µM
